As usually defined, the EC50 is the concentration needed to bring the measured effect to its halfway point.

Where two headings read alike, the source gives them in different places.

For data set [1] the following is noted: amide bond, 13-membered ring, CDMT/NMM, DMF.
Data set [2] addresses T1, CFTR (F508del/MF-HBE cells) (Homo sapiens, UniProt P13569, DEL508-508).
T1 construct: human bronchial epithelial (HBE) cells derived from CF subjects heterozygous for F508del and a minimal function CFTR mutation (F508del/MF-HBE); endogenous in cells; host or cells: Primary human bronchial epithelial cells from CF subjects (F508del/MF genotype), differentiated at an air-liquid interface
The experiment in a line: Ussing chamber assay of CFTR-mediated short-circuit currents, Assay C (0.026 μM to 25 μM, 6 concentrations). The data set is classed as cell-based. The conditions noted are these: with 33 nM potentiator and 18 μM Tezacaftor, 20% human serum; for Emax: read-out: C Max activity (%). In short, it runs like this: (§1)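 F508del/MF-HBE cells grown at air-liquid interface were incubated 18-24 h at 37 °C in 20% human serum with correctors plus 18 μM tezacaftor and a fixed partner compound (33 nM for concentration series, 44 nM at 1 μM). ISC was read at 0 mV after 20 μM forskolin, minus the post-inhibitor current.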

For data set [3], the target named is T1, CFTR (F508del/MF-HBE cells). The experiment in a line: Ussing chamber assay of CFTR-mediated short-circuit currents, Assay D (single concentration of 1 μM). The conditions noted are these: with 44 nM potentiator and 18 μM Tezacaftor, 18-24 hours, 20% human serum. It counts as cell-based. The gist of the method: as §1

T1 sequence (P13569 with tags, fused parts or gaps DEL508-508): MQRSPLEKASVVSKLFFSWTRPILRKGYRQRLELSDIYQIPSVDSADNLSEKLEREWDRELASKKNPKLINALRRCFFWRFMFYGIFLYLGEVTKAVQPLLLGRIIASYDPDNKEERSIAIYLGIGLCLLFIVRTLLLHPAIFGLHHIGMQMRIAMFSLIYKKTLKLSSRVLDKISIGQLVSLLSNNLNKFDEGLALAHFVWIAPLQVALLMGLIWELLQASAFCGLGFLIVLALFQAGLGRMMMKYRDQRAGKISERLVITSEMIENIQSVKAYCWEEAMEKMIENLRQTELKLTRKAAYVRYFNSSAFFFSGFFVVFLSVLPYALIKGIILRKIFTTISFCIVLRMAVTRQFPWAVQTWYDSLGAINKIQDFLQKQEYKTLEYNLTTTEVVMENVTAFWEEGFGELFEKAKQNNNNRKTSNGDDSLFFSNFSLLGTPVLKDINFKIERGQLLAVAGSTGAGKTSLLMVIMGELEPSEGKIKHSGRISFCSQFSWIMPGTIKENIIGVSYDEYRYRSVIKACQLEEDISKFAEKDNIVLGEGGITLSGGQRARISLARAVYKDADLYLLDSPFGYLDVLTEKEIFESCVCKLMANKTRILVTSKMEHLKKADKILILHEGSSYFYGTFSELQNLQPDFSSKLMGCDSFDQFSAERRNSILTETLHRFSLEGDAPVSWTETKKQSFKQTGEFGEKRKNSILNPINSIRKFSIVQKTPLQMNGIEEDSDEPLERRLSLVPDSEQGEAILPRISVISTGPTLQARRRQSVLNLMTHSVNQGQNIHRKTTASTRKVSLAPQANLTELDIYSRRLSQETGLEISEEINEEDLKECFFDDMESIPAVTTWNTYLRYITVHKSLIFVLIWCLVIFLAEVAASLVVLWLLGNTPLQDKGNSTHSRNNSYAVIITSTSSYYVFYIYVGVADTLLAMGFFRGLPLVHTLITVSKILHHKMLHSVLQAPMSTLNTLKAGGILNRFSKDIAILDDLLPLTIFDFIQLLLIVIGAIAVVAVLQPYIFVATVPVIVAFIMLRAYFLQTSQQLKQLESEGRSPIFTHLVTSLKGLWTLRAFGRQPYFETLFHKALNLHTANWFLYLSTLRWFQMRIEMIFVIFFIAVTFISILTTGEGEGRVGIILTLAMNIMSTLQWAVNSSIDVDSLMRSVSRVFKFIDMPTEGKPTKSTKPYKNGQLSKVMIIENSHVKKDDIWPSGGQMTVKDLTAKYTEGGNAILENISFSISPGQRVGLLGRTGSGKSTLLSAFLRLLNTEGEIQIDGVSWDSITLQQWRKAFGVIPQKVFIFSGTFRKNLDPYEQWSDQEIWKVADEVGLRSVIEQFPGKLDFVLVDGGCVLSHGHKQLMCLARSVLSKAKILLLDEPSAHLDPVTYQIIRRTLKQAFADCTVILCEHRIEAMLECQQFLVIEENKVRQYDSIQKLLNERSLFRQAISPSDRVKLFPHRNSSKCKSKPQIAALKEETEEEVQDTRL

`Cc1cccc(C)c1-c1cc2nc(n1)NS(=O)(=O)c1cccc(c1)C(=O)N(Cc1cnc3c(F)c(C4(C)CC4)n(C)c3n1)[C@H](CC1(C)CC1)CO2` [IV-93, (11R)-6-(2,6-dimethylphenyl)-12-[[7-fluoro-5-methyl-6-(1-methylcyclopropyl)pyrrolo[2,3-b]pyrazin-3-yl]methyl]-11-[(1-methylcyclopropyl)methyl]-2,2-dioxo-9-oxa-2λ^6-thia-3,5,12,19-tetraza-tricyclo[12.3.1.14,8]nonadeca-1(18),4(19),5,7,14,16-hexaen-13-one] registered a ring closure, yield after HPLC in data set [1] (from Cc1cccc(C)c1-c1cc(OC[C@@H](CC2(C)CC2)NCc2cnc3c(F)c(C4(C)CC4)n(C)c3n2)nc(NS(=O)(=O)c2cccc(C(=O)O)c2)n1, 10.1 mM, 25.0 °C, 16.5 h) of 20%. In data set [2], the concentration giving a half-maximal response (EC50) was under 1000 nM and the Emax was over 60%.

With `Cc1cccc(C)c1-c1cc2nc(n1)NS(=O)(=O)c1cccc(c1)C(=O)N(Cc1cnc3cc(C(C)(C)C)n(C)c3n1)[C@H](C[C@H]1CCC(C)(C)O1)CO2` [IV-98, (11R)-12-[(6-tert-butyl-5-methyl-pyrrolo[2,3-b]pyrazin-3-yl)methyl]-6-(2,6-dimethylphenyl)-11-[[(2R)-5,5-dimethyltetrahydrofuran-2-yl]methyl]-2,2-dioxo-9-oxa-2λ^6-thia-3,5,12,19-tetrazatricyclo[12.3.1.14,8]nonadeca-1(18),4(19),5,7,14,16-hexaen-13-one], in data set [1] (from Cc1cccc(C)c1-c1cc(OC[C@@H](C[C@H]2CCC(C)(C)O2)NCc2cnc3cc(C(C)(C)C)n(C)c3n2)nc(NS(=O)(=O)c2cccc(C(=O)O)c2)n1, 22.7 mM, 25.0 °C), the ring closure, yield after HPLC was found to be 58%. In data set [2], the EC50 is under 1000 nM and the Emax is over 60%.

`Cc1cccc(C)c1-c1cc2nc(n1)NS(=O)(=O)c1cccc(c1)C(=O)N(Cc1cnc3c(n1)C(=O)N(C(C)C)C3)[C@H](CC1(C)CC1)CO2` [III-21, (11R)-6-(2,6-Dimethylphenyl)-12-[(6-isopropyl-5-oxo-7H-pyrrolo[3,4-b]pyrazin-3-yl)methyl]-11-[(1-methylcyclopropyl)methyl]-2,2-dioxo-9-oxa-2λ^6-thia-3,5,12,19-tetrazatricyclo[12.3.1.14,8]nonadeca-1(18),4(19),5,7,14,16-hexaen-13-one] came in with a ring closure, yield after HPLC in data set [1] (from Cc1cccc(C)c1-c1cc(OC[C@@H](CC2(C)CC2)NCc2cnc3c(n2)C(=O)N(C(C)C)C3)nc(NS(=O)(=O)c2cccc(C(=O)O)c2)n1, 9.0 mM, 16.5 h) of 31%. For the same compound, the Emax in data set [2] (18-24 hours) was over 60%. The EC50 in data set [2] was 1000 to 3000 nM.

`Cc1cccc(C)c1-c1cc2nc(n1)NS(=O)(=O)c1cccc(c1)C(=O)N(Cc1cnc3oc(C(C)C)c(Cl)c3n1)[C@H](CC1(C)CC1)CO2` [Compound I-161, (11R)-12-[(7-chloro-6-isopropyl-furo[2,3-b]pyrazin-2-yl)methyl]-6-(2,6-dimethylphenyl)-11-[(1-methylcyclopropyl)methyl]-2,2-dioxo-9-oxa-2λ^6-thia-3,5,12,19-tetrazatricyclo[12.3.1.14,8]nonadeca-1(18),4(19),5,7,14,16-hexaen-13-one]: the “D activity at 1 μM (%)” value in data set [3] is “+++ (+++ is >60%)”. Besides, the ring closure, yield after HPLC in data set [1] (from Cc1cccc(C)c1-c1cc(OC[C@@H](CC2(C)CC2)NCc2cnc3oc(C(C)C)c(Cl)c3n2)nc(NS(=O)(=O)c2cccc(C(=O)O)c2)n1, 14.9 mM, 19.0 h) amounted to 54%.

Turning to `Cc1cccc(C)c1-c1cc2nc(n1)NS(=O)(=O)c1cccc(c1)C(=O)N(Cc1cnc3sc(C4CC4)cc3n1)[C@H](CC13CC(C1)C3)CO2` [IV-42, (11R)-11-(1-bicyclo[1.1.1]pentanylmethyl)-12-[(6-cyclopropylthieno[2,3-b]pyrazin-2-yl)methyl]-6-(2,6-dimethylphenyl)-2,2-dioxo-9-oxa-2λ^6-thia-3,5,12,19-tetrazatricyclo[12.3.1.14,8]nonadeca-1(18),4(19),5,7,14,16-hexaen-13-one], in data set [1] (from Cc1cccc(C)c1-c1cc(OC[C@@H](CC23CC(C2)C3)NCc2cnc3sc(C4CC4)cc3n2)nc(NS(=O)(=O)c2cccc(C(=O)O)c2)n1, 8.92 mM, 25.0 °C, 18.0 h), the ring closure, yield after HPLC was determined as 54%. In data set [2], the concentration giving a half-maximal response (EC50) fell in the range of 1000 to 3000 nM and the Emax was over 60%.

The compound `Cc1cccc(C)c1-c1cc2nc(n1)NS(=O)(=O)c1cccc(c1)C(=O)N(Cc1cnc3cc(C(C)(C)C(F)(F)F)n(C)c3n1)[C@H](CC13CC(C1)C3)CO2` [IV-102, (11R)-11-(1-bicyclo[1.1.1]pentanylmethyl)-6-(2,6-dimethylphenyl)-12-[[5-methyl-6-(2,2,2-trifluoro-1,1-dimethyl-ethyl)pyrrolo[2,3-b]pyrazin-3-yl]methyl]-2,2-dioxo-9-oxa-2λ^6-thia-3,5,12,19-tetrazatricyclo[12.3.1.14,8]nonadeca-1(18),4(19),5,7,14,16-hexaen-13-one] displayed a ring closure, yield after HPLC in data set [1] (from Cc1cccc(C)c1-c1cc(OC[C@@H](CC23CC(C2)C3)NCc2cnc3cc(C(C)(C)C(F)(F)F)n(C)c3n2)nc(NS(=O)(=O)c2cccc(C(=O)O)c2)n1, 9.8 mM, 25.0 °C, 4.0 h) of 65%. In data set [2], the EC50 was under 1000 nM and the Emax was over 60%.

On to `Cc1cccc(C)c1-c1cc2nc(n1)NS(=O)(=O)c1cccc(c1)C(=O)N(Cc1nc3cc(C4CC4)oc3cc1F)[C@H](CC1(C)CC1)CO2` [Compound I-197, (11R)-12-[(2-cyclopropyl-6-fluoro-furo[3,2-b]pyridin-5-yl)methyl]-6-(2,6-dimethylphenyl)-11-[(1-methylcyclopropyl)methyl]-2,2-dioxo-9-oxa-2λ^6-thia-3,5,12,19-tetrazatricyclo[12.3.1.14,8]nonadeca-1(18),4(19),5,7,14,16-hexaen-13-one], for which the ring closure, yield after HPLC in data set [1] (from Cc1cccc(C)c1-c1cc(OC[C@@H](CC2(C)CC2)NCc2nc3cc(C4CC4)oc3cc2F)nc(NS(=O)(=O)c2cccc(C(=O)O)c2)n1, 19.2 mM, 16.33 h) turned out to be 62%. For the same compound, the Emax in data set [2] (18-24 hours) was over 60%. For the same compound, the concentration giving a half-maximal response (EC50) in data set [2] fell in the range of 1000 to 3000 nM.

For the compound `Cc1cccc(C)c1-c1cc2nc(n1)NS(=O)(=O)c1cccc(c1)C(=O)N(Cc1cnc3cc(C(C)(C)C)[nH]c3n1)[C@H](CC1(C)CC1)CO2` [IV-54, (11R)-12-[(6-tert-butyl-5H-pyrrolo[2,3-b]pyrazin-3-yl)methyl]-6-(2,6-dimethylphenyl)-11-[(1-methylcyclopropyl)methyl]-2,2-dioxo-9-oxa-2λ^6-thia-3,5,12,19-tetrazatricyclo[12.3.1.14,8]nonadeca-1(18),4(19),5,7,14,16-hexaen-13-one], the ring closure, yield after HPLC in data set [1] (from Cc1cccc(C)c1-c1cc(OC[C@@H](CC2(C)CC2)NCc2cnc3cc(C(C)(C)C)[nH]c3n2)nc(NS(=O)(=O)c2cccc(C(=O)O)c2)n1, 9.99 mM, 25.0 °C, 5.5 h) was 44%. In data set [2], the EC50 was in the range of 3000 to 30000 nM and the Emax is over 60%.

Turning to `Cc1cccc(C)c1-c1cc2nc(n1)NS(=O)(=O)c1cccc(c1)C(=O)N(Cc1cnc3oc(C4(C)CCC4)cc3n1)[C@H](CC1(C)CC1)CO2` [Compound I-143, (11R)-6-(2,6-Dimethylphenyl)-12-[[6-(1-methylcyclobutyl)furo[2,3-b]pyrazin-2-yl]methyl]-11-[(1-methylcyclopropyl)methyl]-2,2-dioxo-9-oxa-2λ^6-thia-3,5,12,19-tetrazatricyclo[12.3.1.14,8]nonadeca-1(18),4(19),5,7,14,16-hexaen-13-one], the ring closure, yield after HPLC in data set [1] (from Cc1cccc(C)c1-c1cc(OC[C@@H](CC2(C)CC2)NCc2cnc3oc(C4(C)CCC4)cc3n2)nc(NS(=O)(=O)c2cccc(C(=O)O)c2)n1, 44.8 mM, 16.0 h) turned out to be 56%. Moreover, the Emax in data set [2] (18-24 hours) is over 60%. The EC50 in data set [2] is 3000 to 30000 nM.

Compound `CCc1cccc(CC)c1-c1cc2nc(n1)NS(=O)(=O)c1cccc(c1)C(=O)N(Cc1cnc3c(CCOC)c(C(C)(C)C)n(C)c3n1)[C@H](CC(C)C)CO2` [IV-92, (11R)-12-[[6-tert-butyl-7-(2-methoxyethyl)-5-methyl-pyrrolo[2,3-b]pyrazin-3-yl]methyl]-6-(2,6-diethylphenyl)-11-isobutyl-2,2-dioxo-9-oxa-2λ^6-thia-3,5,12,19-tetrazatricyclo[12.3.1.14,8]nonadeca-1(18),4(19),5,7,14,16-hexaen-13-one] showed a ring closure, yield after HPLC in data set [1] (from CCc1cccc(CC)c1-c1cc(OC[C@@H](CC(C)C)NCc2cnc3c(CCOC)c(C(C)(C)C)n(C)c3n2)nc(NS(=O)(=O)c2cccc(C(=O)O)c2)n1, 34.0 mM, 25.0 °C, 2.0 h) of 22%. In data set [2], the concentration for a half-maximal effect (EC50) was under 1000 nM and the Emax was over 60%.

Regarding “(6P,11S)-12-({6-tert-butyl-5-methyl-5H-pyrrolo[2,3-b]pyrazin-3-yl}methyl)-7-methyl-6-[2-methyl-6-(2-methylpropyl)phenyl]-11-[(trifluoromethoxy)methyl]-9-oxa-2λ^6-thia-3,5,12,19-tetraazatricyclo[12.3.1.1∧{4,8}]nonadeca-1(17),4,6,8(19),14(18),15-hexaene-2,2,13-trione”, the ring closure, yield after HPLC in data set [1] (8.87 mM, 25.0 °C) was 36%.

The values above are taken from patent publication US20250340574A1, “MODULATORS OF CYSTIC FIBROSIS TRANSMEMBRANE CONDUCTANCE REGULATOR” (Vertex Pharmaceuticals Incorporated, priority 2022, published 2025).
